Experimental data as given in US9738610B2, “Indazole derivatives and uses thereof” (Whitehead Institute for Biomedical Research, priority 2012, dated 2017).
Like-named read-outs stand apart in the source and are kept apart here.

Columns and labels:
[1] = tested on: Hsp90; test: Hsp90 binning reporter assay; format: cell-based; settings: Saccharomyces cerevisiae, read-out: Hsp90 pathway inhibition IC50
Experimental: Corning white, 384-well plates were obtained from Corning (Catalog No. 8867BC; Lot No. 22609019). Tropix Gal-Screen was obtained from Applied Biosystems (Catalog No. T2359; Lot No. 0903044).
SD Growth Media was obtained from MP Biomedical (Catalog No. 4027-012; Lot No. 119458). Complete Supplement minus adenine was obtained from Sunrise Science (Catalog No. 1029-100; Lot No. 070409). Deoxycorticosterone (DOC) steroid was obtained from Sigma. To prepare the assay media, 100 ml (20% (w/v) dextrose and 780 mg Complete Supplement) was added to 100 ml SD Growth Media. Water was added to a final volume of 1 liter, and the solution was filter sterilized.
For DOC media, 1 ml DOC was added to 100 ml SD-ADE media.
The following test strain was used in this study: Saccharomyces cerevisiae W303 reporter strain (ATCC 201238). […]
The OD 600 of 1 ml of culture in a cuvette was read using a standard optical density reader with growth medium as a background blank. […] Luminescence of the wells was read on a standard plate reader as a measure of relative fungal growth. Envision (Perkin Elmer) plate reader set-up: Top read; Luminescence filter (560 nm) at 0.1 seconds.
Potential inhibition of the Hsp90-based chaperone machinery was evaluated using yeast reporter assays involving the glucocorticoid hormone receptor and the tyrosine kinase, v-Src. […]

[2] = Plasma stability; settings: % remaining in human plasma after a 5-hour incubation
[3] = tested on: C. albicans CaCi-8; test: microbe, parasite or virus in culture; format: cell-based, Candida albicans; settings: Candida albicans
Outline: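 Hits tested for chemosensitization of the fluconazole-resistant CaCi-8 strain, for inherent antifungal activity without fluconazole, and for mammalian fibroblast toxicity by fluorescence reporter. Geldanamycin plus fluconazole served as positive control; a Saccharomyces assay assigned mechanism to Hsp90, calcineurin or other pathways.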

[4] = Plasma protein binding; settings: human, plasma
[5] = PBS solubility; settings: PBS, aqueous buffer

Q: With `COC(=O)Cn1nc(-c2cccc(OC)c2)c2ccccc21` [Compound I-4, methyl 2-(3-(3-methoxyphenyl)-1H-indazol-1-yl)acetate] as the molecule, how does the IC50 [1] read?
A: 4180 nM

Q: And the “Plasma Stability” value [2]?
A: approximately 3%

Q: And the IC50 ([3]; CACI8, read-out: CaCi-8 IC50 with 8 μg/ml fluconazole, Table 12)?
A: 1200 nM

Q: And the IC50 ([3]; CACI8, read-out: CaCi-8 growth inhibition IC50 (nM), in the presence of fluconazole)?
A: 1210 nM

Q: What about the fraction unbound [4] of the same molecule?
A: 0.05

Q: And the solubility [5]?
A: < 1 µM
